Data from the NIST ThermoML archive (doi:10.1021/acs.jced.5b00049).

Details: Liquid, Buoyancy - hydrostatic balance with magnetic suspension - one sinker

CCCCCCCCCCCCCC [tetradecane]
Details | mass density [kg/m3]
313.13 K, 16040 kPa | 760.35
313.15 K, 14050 kPa | 759.03
313.15 K, 18060 kPa | 761.65
313.17 K, 19040 kPa | 762.28
313.19 K, 10020 kPa | 756.25
313.23 K, 12040 kPa | 757.62
323.14 K, 14050 kPa | 752.38
323.18 K, 12040 kPa | 750.93
323.18 K, 16070 kPa | 753.74
323.23 K, 18060 kPa | 755.07
323.25 K, 19080 kPa | 755.76
323.26 K, 10000 kPa | 749.44
333.13 K, 18050 kPa | 748.61
333.13 K, 19060 kPa | 749.31
333.14 K, 10050 kPa | 742.64
333.16 K, 12040 kPa | 744.14
333.16 K, 16060 kPa | 747.18
333.28 K, 14060 kPa | 745.66
343.31 K, 16030 kPa | 740.68
343.31 K, 19040 kPa | 742.92
343.32 K, 10040 kPa | 736
343.32 K, 12050 kPa | 737.59
343.34 K, 18020 kPa | 742.16
343.35 K, 14070 kPa | 739.16
353.48 K, 16030 kPa | 734.17
353.5 K, 18010 kPa | 735.7
353.51 K, 19050 kPa | 736.41
353.58 K, 12050 kPa | 730.83
353.63 K, 10020 kPa | 729.05
353.66 K, 14040 kPa | 732.42
